# According to patent US20170281714A1, “METHOD OF TREATMENT USING L[…] G[…] COOPERATE WITH IL-10 TO MODULATE INFLAMMATORY RESPONSE TRIGGERED IN HIV+ AND TB IMMUNE-C[…] PATIENTS” (Your Energy Systems, LLC, priority 2014, published 2017):
# How the values were obtained:
# IL-10 = IL-10 secretion by macrophages infected ex vivo with M. Tb H37Rv (FIG. 3; healthy individuals and Type 2 diabetes mellitus); assay type: cell-based, human; conditions: NAC supplied in millimolar amounts
# From the text: FIG. 3 is two bar graphs using various substances or compositions for raising glutathione in macrophages and how macrophages respond to these various methods. On the left is a control graph for healthy individuals. On the right is a graph for individuals affected with Type 2 diabetes mellitus.
# The right graph of FIG. 3 depicts the response of macrophages from individuals with Type 2 diabetes mellitus ex vivo, which have been infected with M. Tb strain H37Rv.
# Prior to the current invention, no method of lowering IL-10 in individuals with type 1 or type 2 diabetes mellitus has been proposed. Type 1 diabetes is an immune disorder in which the body's immune cells (white blood cells) attack and destroy insulin-producing beta cells in the pancreas. As a result, the body cannot produce insulin and glucose stays and builds up in the blood, where it damages all the organ systems. […] Similar to type 1 diabetes, type 2 causes a build-up of glucose in the blood which damages the body's organ systems. One of the key complications of Type 2 diabetes is prolonged infection and inhibited response to infection and poor wound healing. This Type 2 form of the disease is commonly referred to as adult-onset diabetes. Cytokine levels, such as for IL-10, in plasma samples can be determined by sandwich enzyme linked immunosorbent assay (ELISA) using assay kits from eBioscience (kit named ELISA Ready-Set-Go). […]
# [1] = system: Mycobacterium tuberculosis; conditions: NAC at 10 millimolar; cited from earlier work
structure (smiles),measurement,setting,value
"CC(=O)N[C@@H](CS)C(=O)O [NAC, N-acetyl cysteine]",IL-10 level from macrophages in cell culture,IL-10,reduce to normal
same,M. tuberculosis CFU/ml in macrophages,[1],"8,000 CFU/ml"
